Results as given in article PMC8523698, “Preclinical characterization of an intravenous coronavirus 3CL protease inhibitor for the potential treatment of COVID19” (Nature Communications, 2021).
Converted amounts (≈) assume the structure as drawn. “And” between values parts separate entries of the source, which are not always exact repeats. Equal values may be shown once. Read-outs that look alike come from different tables or passages of the source.

Key:
[1] = test system: SARS-CoV-2 Belgium/GHB-03021/2020 strain; experiment: microbe, parasite or virus in culture; assay type: cell-based; set-up: Percent Effect: scale not given: direction of the effect not stated beside the values
OATP1B3 = biological target: T1, OATP1B3 (Homo sapiens, UniProt Q9NPD5); experiment: Transporter inhibition using transfected HEK293 cells; details: IC50, Rosuvastatin (0.5 µM)
T1 sequence (Q9NPD5 1-702): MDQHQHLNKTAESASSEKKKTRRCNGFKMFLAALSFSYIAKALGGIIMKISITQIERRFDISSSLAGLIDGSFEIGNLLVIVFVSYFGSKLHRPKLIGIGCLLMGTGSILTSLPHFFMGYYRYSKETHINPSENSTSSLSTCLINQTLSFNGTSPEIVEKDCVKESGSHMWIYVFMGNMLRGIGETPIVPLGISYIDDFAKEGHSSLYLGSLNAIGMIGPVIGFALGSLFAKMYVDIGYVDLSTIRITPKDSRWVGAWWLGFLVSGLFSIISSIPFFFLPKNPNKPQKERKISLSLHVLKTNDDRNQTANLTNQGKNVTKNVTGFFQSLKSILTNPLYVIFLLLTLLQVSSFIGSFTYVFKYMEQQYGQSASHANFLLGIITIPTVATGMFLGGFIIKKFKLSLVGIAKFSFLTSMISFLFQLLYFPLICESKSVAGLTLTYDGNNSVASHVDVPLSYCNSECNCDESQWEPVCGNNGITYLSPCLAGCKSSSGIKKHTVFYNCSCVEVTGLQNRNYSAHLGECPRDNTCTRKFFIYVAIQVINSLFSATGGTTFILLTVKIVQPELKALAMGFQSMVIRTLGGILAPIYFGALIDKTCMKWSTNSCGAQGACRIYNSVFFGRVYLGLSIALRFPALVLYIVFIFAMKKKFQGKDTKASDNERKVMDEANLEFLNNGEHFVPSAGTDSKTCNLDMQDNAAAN

CYP3A4/5 = experiment: Reversible CYP inhibition in human liver microsomes; details: for IC50: pH 7.4, probe midazolam (1′-hydroxylation), at approximately KM, IC50, Midazolam 1′-hydroxylation
CYP2C8 = biological target: T2, CYP2C8 (Homo sapiens, UniProt P10632); experiment: as above; details: for activity at 0.01 µM / activity at 0.158 µM / activity at 0.398 µM / activity at 1 µM / activity at 15.8 µM / activity at 39.8 µM / activity at 100 µM: human, microsomes, pH 7.4, Percent of Control Activity
T2 sequence (P10632 1-490): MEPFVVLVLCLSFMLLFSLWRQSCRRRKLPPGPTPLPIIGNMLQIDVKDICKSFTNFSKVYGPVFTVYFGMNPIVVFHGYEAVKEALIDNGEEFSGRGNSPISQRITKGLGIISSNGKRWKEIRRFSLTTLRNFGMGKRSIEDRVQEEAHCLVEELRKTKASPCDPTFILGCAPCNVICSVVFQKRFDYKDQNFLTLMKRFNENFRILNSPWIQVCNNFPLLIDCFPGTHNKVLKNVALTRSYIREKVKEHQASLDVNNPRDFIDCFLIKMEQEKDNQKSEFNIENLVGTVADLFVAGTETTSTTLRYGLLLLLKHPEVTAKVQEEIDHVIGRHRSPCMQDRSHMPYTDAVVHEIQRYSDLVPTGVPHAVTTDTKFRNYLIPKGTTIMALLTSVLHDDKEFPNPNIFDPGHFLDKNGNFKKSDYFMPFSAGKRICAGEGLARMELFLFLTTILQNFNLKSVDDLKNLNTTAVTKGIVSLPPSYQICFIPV

[2] = In vitro micronucleus formation; assay type: cell-based
[3] = Secondary/off-target pharmacology panel (Eurofins Cerep); details: assessed at 100 µM
hERG channel = hERG channel (Homo sapiens, UniProt Q12809); experiment: hERG potassium channel current assay
hERG channel, sequence (Q12809 whole entry): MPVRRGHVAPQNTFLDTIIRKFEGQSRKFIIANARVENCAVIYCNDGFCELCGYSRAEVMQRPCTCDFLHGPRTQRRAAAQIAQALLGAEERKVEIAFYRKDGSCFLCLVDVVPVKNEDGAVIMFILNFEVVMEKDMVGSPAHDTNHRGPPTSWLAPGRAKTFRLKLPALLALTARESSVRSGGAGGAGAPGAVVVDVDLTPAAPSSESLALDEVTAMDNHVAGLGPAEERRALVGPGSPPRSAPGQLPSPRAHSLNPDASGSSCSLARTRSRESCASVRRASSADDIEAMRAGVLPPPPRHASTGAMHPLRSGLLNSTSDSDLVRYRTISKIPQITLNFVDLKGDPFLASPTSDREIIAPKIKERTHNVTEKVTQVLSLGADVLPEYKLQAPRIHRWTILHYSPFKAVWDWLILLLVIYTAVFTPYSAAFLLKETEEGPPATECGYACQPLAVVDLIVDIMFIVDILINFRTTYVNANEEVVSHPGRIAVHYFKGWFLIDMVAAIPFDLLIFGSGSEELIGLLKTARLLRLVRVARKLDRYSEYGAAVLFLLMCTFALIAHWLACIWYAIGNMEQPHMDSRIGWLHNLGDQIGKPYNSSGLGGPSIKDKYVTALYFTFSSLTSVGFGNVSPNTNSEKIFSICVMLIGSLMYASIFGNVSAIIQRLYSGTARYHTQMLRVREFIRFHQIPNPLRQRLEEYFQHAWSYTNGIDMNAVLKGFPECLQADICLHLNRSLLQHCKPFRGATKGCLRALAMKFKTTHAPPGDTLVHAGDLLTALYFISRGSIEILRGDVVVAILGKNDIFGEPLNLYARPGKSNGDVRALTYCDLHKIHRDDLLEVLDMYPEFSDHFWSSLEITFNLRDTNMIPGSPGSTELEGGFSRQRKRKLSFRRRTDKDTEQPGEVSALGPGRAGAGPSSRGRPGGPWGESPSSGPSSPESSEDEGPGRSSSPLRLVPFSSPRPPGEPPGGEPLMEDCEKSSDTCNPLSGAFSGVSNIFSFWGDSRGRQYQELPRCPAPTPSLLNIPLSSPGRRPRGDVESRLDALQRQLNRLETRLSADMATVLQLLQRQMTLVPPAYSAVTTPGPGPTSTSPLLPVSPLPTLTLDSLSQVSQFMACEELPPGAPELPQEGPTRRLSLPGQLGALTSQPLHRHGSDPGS

in vitro = details: African green monkey, CC50
[4] = human, human liver microsomes, pH 7.4, probe midazolam (mdz), Percent of Control Activity, CYP 3A4/5 (mdz), 30-Minute Preincubation
[5] = human, human liver microsomes, pH 7.4, probe midazolam (mdz), Percent of Control Activity, CYP 3A4/5 (mdz), Zero-Minute Preincubation

SMILES: COc1cccc2[nH]c(C(=O)N[C@@H](CC(C)C)C(=O)N[C@@H](C[C@@H]3CCNC3=O)C(=O)CO)cc12 [PF-00835231-00]
- Percent Effect [1]: 0.59%

SMILES: COc1cccc2[nH]c(C(=O)N[C@@H](CC(C)C)C(=O)N[C@@H](C[C@@H]3CCNC3=O)C(=O)COP(=O)(O)O)cc12 [PF-07304814]
- IC50 (OATP1B3): 202 µM and > 130 µM
- Percent of Control Activity (CYP3A4/5; CYP 3A4/5 (mdz), 0.01 µM, 30-Minute Preincubation): 103.5%
- Percent of Control Activity (CYP3A4/5; CYP 3A4/5 (mdz), 15.8 µM, Zero-Minute Preincubation): 105.7%
- Percent of Control Activity (CYP3A4/5; CYP 3A4/5 (mdz), 39.8 µM, 30-Minute Preincubation): 99.7%
- Percent of Control Activity (CYP3A4/5; CYP 3A4/5 (mdz), 100 µM, 30-Minute Preincubation): 95.6%
- Percent of Control Activity (CYP3A4/5; CYP 3A4/5 (mdz), 100 µM, Zero-Minute Preincubation): 100.4%
- IC50 (CYP3A4/5; human, human liver microsomes, T0): > 100 µM
- IC50 (CYP3A4/5; human, human liver microsomes, T30): > 100 µM
- activity at 0.01 µM (CYP3A4/5; human, human liver microsomes, pH 7.4, probe midazolam (mdz), Percent of Control Activity, CYP 3A4/5 (mdz), 0.01 µM, Zero-Minute Preincubation): 96.3%
- activity at 0.158 µM (CYP3A4/5; [4]): 103%
- activity at 0.158 µM (CYP3A4/5; [5]): 95%
- activity at 0.398 µM (CYP3A4/5; human, human liver microsomes, pH 7.4, probe midazolam (mdz), Percent of Control Activity, CYP 3A4/5 (mdz), 0.398 µM, 30-Minute Preincubation): 100%
- activity at 1 µM (CYP3A4/5; [4]): 100%
- activity at 1 µM (CYP3A4/5; [5]): 99.8%
- activity at 15.8 µM (CYP3A4/5; human, human liver microsomes, pH 7.4, probe midazolam (mdz), Percent of Control Activity, CYP 3A4/5 (mdz), 15.8 µM, Zero-Minute Preincubation): 101%
- activity at 100 µM (CYP3A4/5; human, human liver microsomes, pH 7.4, probe midazolam (mdz), Percent of Control Activity, CYP 3A4/5 (mdz), 100 µM, 30-Minute Preincubation): 95%
- IC50 (CYP2C8): > 100 µM
- IC50 (CYP2C8; Amodiaquine N-dealkylation, T30): > 100 µM
- Percent of Control Activity (CYP2C8; CYP 2C8, 0.01 µM, 30-Minute Preincubation, 0.01 µM): 100.2%
- Percent of Control Activity (CYP2C8; CYP 2C8, 0.01 µM, Zero-Minute Preincubation, 0.01 µM): 96.2% and 97.6%
- Percent of Control Activity (CYP2C8; CYP 2C8, 0.158 µM, 30-Minute Preincubation, 0.158 µM): 96.6% and 95.8%
- Percent of Control Activity (CYP2C8; CYP 2C8, 0.158 µM, Zero-Minute Preincubation, 0.158 µM): 91.2% and 95.2%
- Percent of Control Activity (CYP2C8; CYP 2C8, 0.398 µM, 30-Minute Preincubation, 0.398 µM): 95.5% and 95.0%
- Percent of Control Activity (CYP2C8; CYP 2C8, 0.398 µM, Zero-Minute Preincubation, 0.398 µM): 94.0% and 94.9%
- Percent of Control Activity (CYP2C8; CYP 2C8, 1 µM, 30-Minute Preincubation, 1 µM): 96.0% and 95.0%
- Percent of Control Activity (CYP2C8; CYP 2C8, 1 µM, Zero-Minute Preincubation, 1 µM): 93.7%
- Percent of Control Activity (CYP2C8; CYP 2C8, 15.8 µM, 30-Minute Preincubation, 15.8 µM): 96.2% and 94.8%
- Percent of Control Activity (CYP2C8; CYP 2C8, 15.8 µM, Zero-Minute Preincubation, 15.8 µM): 94.0% and 95.0%
- Percent of Control Activity (CYP2C8; CYP 2C8, 39.8 µM, 30-Minute Preincubation, 39.8 µM): 94.8% and 91.6%
- Percent of Control Activity (CYP2C8; CYP 2C8, 39.8 µM, Zero-Minute Preincubation, 39.8 µM): 94.6%
- Percent of Control Activity (CYP2C8; CYP 2C8, 100 µM, 30-Minute Preincubation, 100 µM): 96.4%
- Percent of Control Activity (CYP2C8; CYP 2C8, 100 µM, Zero-Minute Preincubation, 100 µM): 88.3%
- activity at 0.01 µM (CYP2C8; CYP 2C8, 0.01 µM, 30-Minute Preincubation): 94.3%
- activity at 0.01 µM (CYP2C8; CYP 2C8, 0.01 µM, Zero-Minute Preincubation): 95.1%
- activity at 0.158 µM (CYP2C8; CYP 2C8, 0.158 µM, 30-Minute Preincubation): 90.5%
- activity at 0.158 µM (CYP2C8; CYP 2C8, 0.158 µM, Zero-Minute Preincubation): 91.3%
- activity at 0.398 µM (CYP2C8; CYP 2C8, 0.398 µM, 30-Minute Preincubation): 92.1%
- activity at 0.398 µM (CYP2C8; CYP 2C8, 0.398 µM, Zero-Minute Preincubation): 95.4%
- activity at 1 µM (CYP2C8; CYP 2C8, 1 µM, 30-Minute Preincubation): 91.8%
- activity at 1 µM (CYP2C8; CYP 2C8, 1 µM, Zero-Minute Preincubation): 92.1%
- activity at 15.8 µM (CYP2C8; CYP 2C8, 15.8 µM, 30-Minute Preincubation): 88.9%
- activity at 15.8 µM (CYP2C8; CYP 2C8, 15.8 µM, Zero-Minute Preincubation): 89.3%
- activity at 39.8 µM (CYP2C8; CYP 2C8, 39.8 µM, 30-Minute Preincubation): 88.9%
- activity at 39.8 µM (CYP2C8; CYP 2C8, 39.8 µM, Zero-Minute Preincubation): 87%
- activity at 100 µM (CYP2C8; CYP 2C8, 100 µM, 30-Minute Preincubation): 89.5%
- activity at 100 µM (CYP2C8; CYP 2C8, 100 µM, Zero-Minute Preincubation): 85.6%
- micronuclei formation [2]: did not induce micronuclei formation
- secondary (off-target) pharmacology [3]: minimal potential for secondary (off-target) pharmacology
- hERG margin in reference to projected unbound human Cmax (hERG channel; 300 µM vs projected Cmax at projected human efficacious dose): 1,770 fold
- concentration up to which hERG current amplitude was not inhibited (hERG channel; human): 300 µM
- solubility at 48 h (Solubility measurement; deionized water and pH buffers): > 200 mg/mL
- solubility at 48 h (Solubility measurement; deionized water and pH buffers (aqueous)): 200 mg/mL (≈ 362 mM)
- CC50 (in vitro): > 100 µM
